Among the data in PMC8371461 (Frontiers in Pharmacology, 2021) are kinase inhibition and Kd values, retold here.

Format in all cases: binding
One assay addresses T1, DCAMKL1 (Homo sapiens, UniProt O15075).
T1 construct: purchased DiscoverX (KINOMEscan)
Briefly: kinome scan. As to conditions: 10 µM.

For a further assay, the target named is T2, AKT1 (Homo sapiens, UniProt P31749).
T2 construct: purchased DiscoverX (KINOMEscan)
Nature of the assay: kinome scan. The conditions noted are these: 10 µM.

In the next assay the target is T3, NEK11 (Homo sapiens, UniProt Q8NG66).
T3 construct: purchased DiscoverX (KINOMEscan)
Briefly: kinome scan. As to conditions: 10 µM.

The next assay has as its target T4, MYO3A (Homo sapiens, UniProt Q8NEV4).
T4 construct: purchased DiscoverX (KINOMEscan)
Briefly: kinome scan. As to conditions: 10 µM.

A further assay has as its target T5, LCK (Homo sapiens, UniProt P06239).
T5 construct: purchased DiscoverX (KINOMEscan)
Briefly: kinome scan. As to conditions: 10 µM.

The next assay deals with T6, AKT3 (Homo sapiens, UniProt Q9Y243).
T6 construct: purchased DiscoverX (KINOMEscan)
Nature of the assay: kinome scan. The conditions noted are these: 10 µM.

A further assay concerns the target T7, CAMK2G (Homo sapiens, UniProt Q13555).
T7 construct: purchased DiscoverX (KINOMEscan)
Nature of the assay: kinome scan. As to conditions: 10 µM.

The next assay deals with T8, NEK7 (Homo sapiens, UniProt Q8TDX7).
T8 construct: purchased DiscoverX (KINOMEscan)
Briefly: kinome scan. As to conditions: 10 µM.

In another assay the target is T9, SIK2 (Homo sapiens, UniProt Q9H0K1).
T9 construct: purchased DiscoverX (KINOMEscan)
Briefly: kinome scan. The conditions noted are these: 10 µM.

The target in the next assay is T10, MST2 (Homo sapiens, UniProt Q13188).
T10 construct: purchased DiscoverX (KINOMEscan)
Briefly: kinome scan. As to conditions: 10 µM.

The next assay addresses T11, KIT(L576P) (Homo sapiens, UniProt P10721, L576P).
T11 construct: purchased DiscoverX (KINOMEscan)
Briefly: kinome scan. The conditions noted are these: 10 µM.

The next assay addresses T12, PAK3 (Homo sapiens, UniProt O75914).
T12 construct: purchased DiscoverX (KINOMEscan)
Nature of the assay: kinome scan. As to conditions: 10 µM.

A further assay concerns the target T13, PRKCH (Homo sapiens, UniProt P24723).
T13 construct: purchased DiscoverX (KINOMEscan)
Nature of the assay: kinome scan. As to conditions: 10 µM.

The target of another assay is T14, BRSK1 (Homo sapiens, UniProt Q8TDC3).
T14 construct: purchased DiscoverX (KINOMEscan)
Briefly: kinome scan. As to conditions: 10 µM.

Another assay addresses T15, YANK1 (Homo sapiens, UniProt Q8WU08).
T15 construct: purchased DiscoverX (KINOMEscan)
Nature of the assay: kinome scan. As to conditions: 10 µM.

The target in a further assay is T16, CLK3 (Homo sapiens, UniProt P49761).
T16 construct: purchased DiscoverX (KINOMEscan)
Nature of the assay: kinome scan. The conditions noted are these: 10 µM.

The next assay has as its target T17, LATS2 (Homo sapiens, UniProt Q9NRM7).
T17 construct: purchased DiscoverX (KINOMEscan)
Nature of the assay: kinome scan. As to conditions: 10 µM.

Another assay deals with T18, ANKK1 (Homo sapiens, UniProt Q8NFD2).
T18 construct: purchased DiscoverX (KINOMEscan)
T18 sequence (Q8NFD2 1-765): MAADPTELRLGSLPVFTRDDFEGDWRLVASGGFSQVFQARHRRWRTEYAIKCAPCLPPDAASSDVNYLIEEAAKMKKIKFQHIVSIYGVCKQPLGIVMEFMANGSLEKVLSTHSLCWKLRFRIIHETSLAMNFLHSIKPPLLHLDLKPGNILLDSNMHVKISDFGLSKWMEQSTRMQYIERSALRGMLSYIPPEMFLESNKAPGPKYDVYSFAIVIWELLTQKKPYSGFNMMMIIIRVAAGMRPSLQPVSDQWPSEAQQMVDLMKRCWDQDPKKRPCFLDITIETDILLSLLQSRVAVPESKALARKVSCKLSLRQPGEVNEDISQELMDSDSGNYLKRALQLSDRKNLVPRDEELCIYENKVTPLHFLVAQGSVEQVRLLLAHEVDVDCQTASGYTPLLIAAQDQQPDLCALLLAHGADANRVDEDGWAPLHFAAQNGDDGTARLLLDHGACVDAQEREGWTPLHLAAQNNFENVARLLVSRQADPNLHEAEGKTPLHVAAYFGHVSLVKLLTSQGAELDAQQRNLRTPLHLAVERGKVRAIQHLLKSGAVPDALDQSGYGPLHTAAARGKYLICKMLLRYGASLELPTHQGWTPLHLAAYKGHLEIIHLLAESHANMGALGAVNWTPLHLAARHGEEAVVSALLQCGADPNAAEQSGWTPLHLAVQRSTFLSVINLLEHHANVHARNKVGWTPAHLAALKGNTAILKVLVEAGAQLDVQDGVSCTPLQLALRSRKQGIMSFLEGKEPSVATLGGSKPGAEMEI
Nature of the assay: Kd select analysis (DiscoverX). The procedure:
(§1) Hits are identified by an ultra-sensitive quantitative PCR detecting the specific DNA tag linked to each kinase (Supplementary Figure S2). The drug is used at a concentration of 10 µM and results are expressed as the percentage of signal (kinase PCR detection) with respect to DMSO control conditions. Thirteen hits were identified, with a signal reduction ranging from 0 to 27% (Table 3). Full raw data are presented in Supplementary Table S4. Interactions between 0 and 20% of reduction were considered to be the most significant ones. […] A sub-micromolar affinity (Kd<1 µM) was only seen with two PIKs (PIP4K2C, PI4KB) and GAK (Table 4). Inhibitions curves from these compounds are shown in Supplementary Figure S3.

The target in a further assay is T19, MKNK2 (Homo sapiens, UniProt Q9HBH9).
T19 construct: purchased DiscoverX (KINOMEscan)
Nature of the assay: Kd select analysis (DiscoverX). The procedure: as §1

The target in a further assay is T20, RIOK2 (Homo sapiens, UniProt Q9BVS4).
T20 construct: T7 phage fusion (kinase-tagged phage); purchased DiscoverX; host or cells: BL21-derived E. coli (T7 phage)
Briefly: Kd select analysis (DiscoverX). The procedure: as §1

A further assay deals with T21, SgK110 (Homo sapiens, UniProt P0C264).
T21 construct: purchased DiscoverX (KINOMEscan)
Nature of the assay: kinome scan. As to conditions: 10 µM.

The next assay concerns the target T22, YANK3 (Homo sapiens, UniProt Q86UX6).
T22 construct: purchased DiscoverX (KINOMEscan)
Nature of the assay: kinome scan. The conditions noted are these: 10 µM.

The target of the next assay is T23, GRK4 (Homo sapiens, UniProt P32298).
T23 construct: purchased DiscoverX (KINOMEscan)
Nature of the assay: kinome scan. The conditions noted are these: 10 µM.

The target of another assay is T24, ROS1 (Homo sapiens, UniProt P08922).
T24 construct: purchased DiscoverX (KINOMEscan)
Briefly: kinome scan. As to conditions: 10 µM.

T10 sequence (Q13188 whole entry): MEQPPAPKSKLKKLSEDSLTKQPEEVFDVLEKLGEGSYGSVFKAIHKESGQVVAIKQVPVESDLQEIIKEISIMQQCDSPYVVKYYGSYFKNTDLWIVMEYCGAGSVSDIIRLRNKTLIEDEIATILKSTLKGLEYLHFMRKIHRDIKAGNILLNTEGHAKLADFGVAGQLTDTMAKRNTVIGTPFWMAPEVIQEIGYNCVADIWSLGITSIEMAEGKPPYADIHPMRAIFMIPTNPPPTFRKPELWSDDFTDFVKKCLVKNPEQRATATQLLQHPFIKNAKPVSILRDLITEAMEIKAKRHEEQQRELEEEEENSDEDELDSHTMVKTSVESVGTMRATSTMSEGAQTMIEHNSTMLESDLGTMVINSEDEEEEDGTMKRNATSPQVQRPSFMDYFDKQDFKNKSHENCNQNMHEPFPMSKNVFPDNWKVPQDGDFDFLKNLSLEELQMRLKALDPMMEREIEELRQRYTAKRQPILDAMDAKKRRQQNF
T2 sequence (P31749 whole entry): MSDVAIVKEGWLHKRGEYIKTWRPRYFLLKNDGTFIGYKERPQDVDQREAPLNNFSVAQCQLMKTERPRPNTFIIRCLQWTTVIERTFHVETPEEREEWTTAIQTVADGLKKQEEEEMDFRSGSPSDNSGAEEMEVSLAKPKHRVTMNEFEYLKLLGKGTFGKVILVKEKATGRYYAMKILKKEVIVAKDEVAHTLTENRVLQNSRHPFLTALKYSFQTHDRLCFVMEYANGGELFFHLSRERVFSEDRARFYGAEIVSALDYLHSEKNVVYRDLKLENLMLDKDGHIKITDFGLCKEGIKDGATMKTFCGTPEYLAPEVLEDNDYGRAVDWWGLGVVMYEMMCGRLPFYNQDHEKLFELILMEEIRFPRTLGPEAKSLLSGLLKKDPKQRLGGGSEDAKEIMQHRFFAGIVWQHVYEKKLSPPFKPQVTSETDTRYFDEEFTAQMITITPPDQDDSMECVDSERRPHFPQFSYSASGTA
T13 sequence (P24723 whole entry): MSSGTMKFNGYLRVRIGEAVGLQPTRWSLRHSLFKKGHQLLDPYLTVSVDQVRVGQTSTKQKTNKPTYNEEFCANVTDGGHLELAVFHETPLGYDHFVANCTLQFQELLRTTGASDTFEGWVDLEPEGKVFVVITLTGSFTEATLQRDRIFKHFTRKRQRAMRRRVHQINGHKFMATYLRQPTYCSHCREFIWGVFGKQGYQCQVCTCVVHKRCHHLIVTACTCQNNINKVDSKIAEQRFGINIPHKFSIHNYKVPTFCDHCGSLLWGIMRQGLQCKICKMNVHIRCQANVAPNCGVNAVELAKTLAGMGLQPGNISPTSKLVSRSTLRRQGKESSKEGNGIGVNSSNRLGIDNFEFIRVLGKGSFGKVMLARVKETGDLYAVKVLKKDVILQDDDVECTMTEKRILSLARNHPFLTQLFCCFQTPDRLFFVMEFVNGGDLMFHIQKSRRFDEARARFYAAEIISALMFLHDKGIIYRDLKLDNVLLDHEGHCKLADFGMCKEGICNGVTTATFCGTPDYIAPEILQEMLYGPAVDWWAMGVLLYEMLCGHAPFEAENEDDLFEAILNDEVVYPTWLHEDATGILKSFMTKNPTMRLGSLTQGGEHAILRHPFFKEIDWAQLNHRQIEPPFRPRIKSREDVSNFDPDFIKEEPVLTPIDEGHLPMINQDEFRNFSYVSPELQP
T19 sequence (Q9HBH9 whole entry): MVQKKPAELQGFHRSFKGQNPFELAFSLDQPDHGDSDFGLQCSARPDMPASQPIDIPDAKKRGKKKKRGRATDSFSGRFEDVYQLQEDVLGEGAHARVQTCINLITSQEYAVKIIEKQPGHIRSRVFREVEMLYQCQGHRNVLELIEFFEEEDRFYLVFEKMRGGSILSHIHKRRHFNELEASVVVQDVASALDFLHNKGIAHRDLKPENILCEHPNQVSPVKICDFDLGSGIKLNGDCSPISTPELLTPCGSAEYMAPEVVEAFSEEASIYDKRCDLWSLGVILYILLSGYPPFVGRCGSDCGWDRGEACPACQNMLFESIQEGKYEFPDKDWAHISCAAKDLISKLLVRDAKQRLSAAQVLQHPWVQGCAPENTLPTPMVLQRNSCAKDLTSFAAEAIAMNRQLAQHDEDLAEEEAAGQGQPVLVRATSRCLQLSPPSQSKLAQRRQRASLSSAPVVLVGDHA
T23 sequence (P32298 whole entry): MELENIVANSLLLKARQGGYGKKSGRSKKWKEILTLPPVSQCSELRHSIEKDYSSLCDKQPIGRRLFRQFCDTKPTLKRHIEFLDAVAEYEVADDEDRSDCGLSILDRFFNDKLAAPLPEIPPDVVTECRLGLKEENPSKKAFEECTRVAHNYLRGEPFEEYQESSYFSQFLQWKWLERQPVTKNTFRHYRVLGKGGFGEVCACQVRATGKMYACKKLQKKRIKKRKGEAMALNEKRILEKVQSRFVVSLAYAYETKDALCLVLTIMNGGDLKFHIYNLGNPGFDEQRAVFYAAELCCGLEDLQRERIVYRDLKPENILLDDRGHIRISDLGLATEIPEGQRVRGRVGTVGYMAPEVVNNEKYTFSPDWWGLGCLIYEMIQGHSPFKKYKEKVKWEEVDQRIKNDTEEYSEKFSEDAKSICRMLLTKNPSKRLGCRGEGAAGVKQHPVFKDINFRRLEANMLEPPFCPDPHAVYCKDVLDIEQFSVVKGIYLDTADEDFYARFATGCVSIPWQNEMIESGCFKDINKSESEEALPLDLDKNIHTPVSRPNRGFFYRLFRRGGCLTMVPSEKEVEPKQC
T22 sequence (Q86UX6 whole entry): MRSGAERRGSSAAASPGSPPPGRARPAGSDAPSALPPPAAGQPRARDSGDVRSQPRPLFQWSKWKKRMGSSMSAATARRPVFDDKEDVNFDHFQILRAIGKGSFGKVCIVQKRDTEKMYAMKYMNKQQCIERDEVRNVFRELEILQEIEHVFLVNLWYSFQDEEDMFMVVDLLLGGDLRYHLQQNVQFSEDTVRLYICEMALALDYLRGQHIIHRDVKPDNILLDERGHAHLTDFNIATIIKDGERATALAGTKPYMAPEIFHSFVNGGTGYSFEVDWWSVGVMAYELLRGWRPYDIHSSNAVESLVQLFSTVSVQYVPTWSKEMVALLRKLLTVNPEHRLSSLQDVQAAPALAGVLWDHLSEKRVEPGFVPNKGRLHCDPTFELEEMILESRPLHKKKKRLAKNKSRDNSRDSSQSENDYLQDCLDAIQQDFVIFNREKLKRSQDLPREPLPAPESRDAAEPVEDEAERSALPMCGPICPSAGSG
T7 sequence (Q13555 whole entry): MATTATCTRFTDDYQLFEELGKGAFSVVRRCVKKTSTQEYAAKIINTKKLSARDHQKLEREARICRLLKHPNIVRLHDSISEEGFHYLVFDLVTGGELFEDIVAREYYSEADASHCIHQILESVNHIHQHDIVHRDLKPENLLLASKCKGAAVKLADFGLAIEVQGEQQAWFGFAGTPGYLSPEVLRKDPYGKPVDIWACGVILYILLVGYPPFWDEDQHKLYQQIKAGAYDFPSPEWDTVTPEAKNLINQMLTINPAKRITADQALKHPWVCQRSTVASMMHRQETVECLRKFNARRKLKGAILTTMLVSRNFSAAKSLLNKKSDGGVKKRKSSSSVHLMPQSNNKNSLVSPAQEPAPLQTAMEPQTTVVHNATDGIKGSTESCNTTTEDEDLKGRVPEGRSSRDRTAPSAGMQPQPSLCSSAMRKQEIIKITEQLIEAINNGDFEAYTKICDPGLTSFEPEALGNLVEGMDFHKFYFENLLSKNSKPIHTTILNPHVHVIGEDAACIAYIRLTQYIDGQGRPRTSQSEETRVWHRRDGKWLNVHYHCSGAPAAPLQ
T21 sequence (P0C264 whole entry): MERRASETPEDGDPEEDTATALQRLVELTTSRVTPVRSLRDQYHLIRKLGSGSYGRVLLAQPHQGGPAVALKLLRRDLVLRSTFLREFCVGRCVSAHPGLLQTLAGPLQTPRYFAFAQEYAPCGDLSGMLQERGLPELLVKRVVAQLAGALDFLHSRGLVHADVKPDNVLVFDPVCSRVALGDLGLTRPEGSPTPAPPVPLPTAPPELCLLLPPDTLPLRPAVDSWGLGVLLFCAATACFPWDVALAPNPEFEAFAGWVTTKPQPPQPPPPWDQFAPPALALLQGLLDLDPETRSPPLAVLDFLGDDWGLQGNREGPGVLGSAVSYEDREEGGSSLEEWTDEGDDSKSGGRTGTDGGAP
T9 sequence (Q9H0K1 whole entry): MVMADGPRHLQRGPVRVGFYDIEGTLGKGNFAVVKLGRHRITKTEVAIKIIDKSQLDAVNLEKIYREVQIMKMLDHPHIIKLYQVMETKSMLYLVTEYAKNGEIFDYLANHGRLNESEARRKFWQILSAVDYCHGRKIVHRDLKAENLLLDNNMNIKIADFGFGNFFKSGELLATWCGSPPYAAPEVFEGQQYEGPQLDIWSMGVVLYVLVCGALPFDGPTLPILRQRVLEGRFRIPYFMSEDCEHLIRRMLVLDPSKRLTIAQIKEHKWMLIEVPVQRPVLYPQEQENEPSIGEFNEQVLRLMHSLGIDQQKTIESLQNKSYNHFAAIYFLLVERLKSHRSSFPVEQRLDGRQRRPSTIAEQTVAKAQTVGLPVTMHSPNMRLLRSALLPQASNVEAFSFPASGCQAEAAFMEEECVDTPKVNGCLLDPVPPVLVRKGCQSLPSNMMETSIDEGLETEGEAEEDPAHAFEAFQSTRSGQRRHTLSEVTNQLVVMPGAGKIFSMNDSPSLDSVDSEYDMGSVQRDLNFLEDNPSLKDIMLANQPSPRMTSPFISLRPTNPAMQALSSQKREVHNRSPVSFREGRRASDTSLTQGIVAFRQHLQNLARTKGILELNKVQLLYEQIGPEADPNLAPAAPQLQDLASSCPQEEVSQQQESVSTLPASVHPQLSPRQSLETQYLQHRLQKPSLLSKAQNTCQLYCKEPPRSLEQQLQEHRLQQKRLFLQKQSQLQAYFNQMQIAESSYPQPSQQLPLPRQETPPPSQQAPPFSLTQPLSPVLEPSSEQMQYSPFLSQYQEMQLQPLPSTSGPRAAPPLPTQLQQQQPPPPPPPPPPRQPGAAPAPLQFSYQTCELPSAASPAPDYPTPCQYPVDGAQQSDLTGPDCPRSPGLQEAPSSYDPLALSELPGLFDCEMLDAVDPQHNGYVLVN

In the case of `Nc1ccc(N=Nc2ccccc2)c(N)n1` [phenazopyridine, 2,6-diamino-3-(phenylazo)pyridine], the kinase inhibition amounted to 100 on DCAMKL1; 99 on AKT1; 100 at NEK11; 100 at MYO3A; 96 on LCK; 92 at AKT3. Moreover, the kinase inhibition is on record as 100 on CAMK2G; 100 on NEK7; 92 on SIK2; 73 on MST2; 44 at KIT(L576P); 99 on PAK3. The kinase inhibition at PRKCH is 78; on BRSK1 it was 62; on YANK1 it was 98; on CLK3, 99; on LATS2, 100; on SgK110, 100. The figures for the kinase inhibition on YANK3, at GRK4 and on ROS1 were 100, 95 and 100, respectively. The Kd (usually the constant that tells how readily two partners part at equilibrium) came to 21000 nM on ANKK1, 2100 nM at MKNK2 and 1000 nM at RIOK2.
